From PubChem BioAssay AID292 (DTP/NCI, 2004)
Where “and” joins values, the source holds several entries; their conditions need not be identical. Equal values may be shown once. Toxic doses and inconclusive results are not listed.

System: B6C3F1 mice, ip Sarcoma M5076, median survival T/C
Experiment: NCI In Vivo Anticancer Drug Screen. Data for tumor model Sarcoma M5076 (intraperitoneal) in B6C3F1 mice
Details: endpoint: median survival time, higher = longer survival
In short: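 Transplantable tumour in mice; compound-treated vs vehicle-treated groups. Read-out: survival. Value = treated/control ratio.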

[1] = dose: 25.0 mg/kg/injection, schedule: Q04DX004 (ip), vehicle: Klucel (hydroxypropylcellulose) (HPC)
[2] = dose: 50.0 mg/kg/injection, schedule: Q04DX004 (ip), vehicle: Klucel (hydroxypropylcellulose) (HPC)
[3] = dose: 100.0 mg/kg/injection, schedule: Q04DX004 (ip), vehicle: Klucel (hydroxypropylcellulose) (HPC)
[4] = dose: 75.0 mg/kg/injection, schedule: Q04DX004 (ip), vehicle: saline with Tween-80
[5] = dose: 150.0 mg/kg/injection, schedule: Q04DX004 (ip), vehicle: saline with Tween-80
[6] = dose: 300.0 mg/kg/injection, schedule: Q04DX004 (ip), vehicle: saline with Tween-80
[7] = dose: 200.0 mg/kg/injection, schedule: Q04DX004 (ip), vehicle: Klucel (hydroxypropylcellulose) (HPC)
[8] = dose: 400.0 mg/kg/injection, schedule: Q04DX004 (ip), vehicle: Klucel (hydroxypropylcellulose) (HPC)
[9] = dose: 43.75 mg/kg/injection, schedule: Q04DX004 (ip), vehicle: Klucel (hydroxypropylcellulose) (HPC)
[10] = dose: 87.5 mg/kg/injection, schedule: Q04DX004 (ip), vehicle: Klucel (hydroxypropylcellulose) (HPC)
[11] = dose: 175.0 mg/kg/injection, schedule: Q04DX004 (ip), vehicle: Klucel (hydroxypropylcellulose) (HPC)
[12] = dose: 350.0 mg/kg/injection, schedule: Q04DX004 (ip), vehicle: Klucel (hydroxypropylcellulose) (HPC)
[13] = dose: 700.0 mg/kg/injection, schedule: Q04DX004 (ip), vehicle: Klucel (hydroxypropylcellulose) (HPC)
[14] = dose: 25.0 mg/kg/injection, schedule: Q04DX004 (ip), vehicle: saline
[15] = dose: 50.0 mg/kg/injection, schedule: Q04DX004 (ip), vehicle: saline

## CC(C)[C@](O)(C(=O)OCC1=CC[N+]2([O-])CC[C@@H](O)[C@@H]12)[C@H](C)O (some centres not stated)
dose: 75.0 mg/kg/injection, schedule: Q04DX005 (ip), vehicle: saline
  T/C: 111 % of control
dose: 112.5 mg/kg/injection, schedule: Q04DX004 (ip), vehicle: water
  T/C: 122 % of control
dose: 150.0 mg/kg/injection, schedule: Q04DX005 (ip), vehicle: saline
  T/C: 108 % of control
dose: 225.0 mg/kg/injection, schedule: Q04DX004 (ip), vehicle: water
  T/C: 150 % of control
dose: 300.0 mg/kg/injection, schedule: Q04DX005 (ip), vehicle: saline
  T/C: 153 % of control
dose: 450.0 mg/kg/injection, schedule: Q04DX004 (ip), vehicle: water
  T/C: 199 % of control
dose: 600.0 mg/kg/injection, schedule: Q04DX005 (ip), vehicle: saline
  T/C: 230 % of control
dose: 900.0 mg/kg/injection, schedule: Q04DX004 (ip), vehicle: water
  T/C: 208 % of control
dose: 1200.0 mg/kg/injection, schedule: Q04DX005 (ip), vehicle: saline
  T/C: 230 % of control
dose: 1800.0 mg/kg/injection, schedule: Q04DX004 (ip), vehicle: water
  T/C: 291 % of control

## CC1=CCCC2C1(C)CCC(C)C2(C)Cc1cc(O)ccc1O (configuration not stated)
dose: 6.25 mg/kg/injection, schedule: Q04DX004 (ip), vehicle: Klucel (hydroxypropylcellulose) (HPC)
  T/C: 103 % of control
dose: 12.5 mg/kg/injection, schedule: Q04DX004 (ip), vehicle: Klucel (hydroxypropylcellulose) (HPC)
  T/C: 99 % of control
[1]
  T/C: 101 % of control
[2]
  T/C: 99 % of control
[3]
  T/C: 102 % of control

## Nc1cc(=O)n(Cc2ccco2)c(=S)[nH]1
dose: 50.0 mg/kg/injection, schedule: Q04DX004 (ip), vehicle: saline with Tween-80
  T/C: 106 % of control
dose: 100.0 mg/kg/injection, schedule: Q04DX004 (ip), vehicle: saline with Tween-80
  T/C: 97 % of control
dose: 200.0 mg/kg/injection, schedule: Q04DX004 (ip), vehicle: saline with Tween-80
  T/C: 106 % of control
dose: 400.0 mg/kg/injection, schedule: Q04DX004 (ip), vehicle: saline with Tween-80
  T/C: 107 % of control
dose: 800.0 mg/kg/injection, schedule: Q04DX004 (ip), vehicle: saline with Tween-80
  T/C: 97 % of control

## COc1ccc(OC)c(N2C(=O)C(=O)C(C(C)=O)C2=O)c1 (configuration not stated)
[2]
  T/C: 104 % of control
[3]
  T/C: 100 % of control

## O=S(=O)(O)C1=CC(=N\Cl)/C=CC/1=N/Cl
dose: 37.5 mg/kg/injection, schedule: Q04DX004 (ip), vehicle: saline with Tween-80
  T/C: 104 % of control
[4]
  T/C: 104 % of control
[5]
  T/C: 106 % of control
[6]
  T/C: 108 % of control

## Cn1c2c(c3nc(N)nc(N)c3c1=O)CCc1ccccc1-2
dose: 25.0 mg/kg/injection, schedule: Q04DX004 (ip), vehicle: distilled water + alcohol
  T/C: 100 % of control
dose: 50.0 mg/kg/injection, schedule: Q04DX004 (ip), vehicle: distilled water + alcohol
  T/C: 104 % of control
dose: 100.0 mg/kg/injection, schedule: Q04DX004 (ip), vehicle: distilled water + alcohol
  T/C: 100 % of control

## C[CH2][Sn]([Cl])([CH2]C)[c]1cc[c]([Sn]([Cl])([CH2]C)[CH2]C)cc1
dose: 0.06 mg/kg/injection, schedule: Q04DX004 (ip), vehicle: Klucel (hydroxypropylcellulose) (HPC)
  T/C: 102 % of control
dose: 0.12 mg/kg/injection, schedule: Q04DX004 (ip), vehicle: Klucel (hydroxypropylcellulose) (HPC)
  T/C: 89 % of control
dose: 0.25 mg/kg/injection, schedule: Q04DX004 (ip), vehicle: Klucel (hydroxypropylcellulose) (HPC)
  T/C: 91 % of control
dose: 0.5 mg/kg/injection, schedule: Q04DX004 (ip), vehicle: Klucel (hydroxypropylcellulose) (HPC)
  T/C: 101 % of control
dose: 90.0 micrograms/kg/injection, schedule: Q04DX004 (ip), vehicle: Klucel (hydroxypropylcellulose) (HPC)
  T/C: 106 % of control
dose: 150.0 micrograms/kg/injection, schedule: Q04DX004 (ip), vehicle: Klucel (hydroxypropylcellulose) (HPC)
  T/C: 96 % of control
dose: 250.0 micrograms/kg/injection, schedule: Q04DX004 (ip), vehicle: Klucel (hydroxypropylcellulose) (HPC)
  T/C: 100 % of control
dose: 416.7 micrograms/kg/injection, schedule: Q04DX004 (ip), vehicle: Klucel (hydroxypropylcellulose) (HPC)
  T/C: 98 % of control
dose: 694.5 micrograms/kg/injection, schedule: Q04DX004 (ip), vehicle: Klucel (hydroxypropylcellulose) (HPC)
  T/C: 107 % of control

## O=c1c(O)c(-c2cc(O)c(O)c(O)c2)oc2cc(O)cc(O)c12
[4]
  T/C: 111 % of control
[5]
  T/C: 111 % of control
[6]
  T/C: 101 % of control
dose: 600.0 mg/kg/injection, schedule: Q04DX004 (ip), vehicle: saline with Tween-80
  T/C: 99 % of control

## CCN(CC)CCOC(=O)c1c(C)oc2cc3c(C(=O)OCCN(CC)CC)c(C)oc3cc12
[1]
  T/C: 105 % of control
[2]
  T/C: 99 % of control
[3]
  T/C: 109 % of control
[7]
  T/C: 104 % of control
[8]
  T/C: 106 % of control

## COc1ccc(CCN2C(=O)C(=O)N(c3cccc(Cl)c3)C2=O)cc1OC
[9]
  T/C: 88 % of control
[10]
  T/C: 91 % of control
[11]
  T/C: 88 % of control
[12]
  T/C: 98 % of control
[13]
  T/C: 92 % of control

## O=CC(CO)CC(C=O)n1cnc2c(=O)[nH]cnc21 (configuration not stated)
dose: 37.0 mg/kg/injection, schedule: Q04DX004 (ip), vehicle: saline
  T/C: 104 % of control
dose: 75.0 mg/kg/injection, schedule: Q04DX004 (ip), vehicle: saline
  T/C: 105 % of control
dose: 300.0 mg/kg/injection, schedule: Q04DX004 (ip), vehicle: saline
  T/C: 124 % of control

## CC(C)(C)CCC(Br)CBr (configuration not stated)
dose: 3.12 mg/kg/injection, schedule: Q04DX004 (ip), vehicle: saline
  T/C: 98 % of control
dose: 3.12 mg/kg/injection, schedule: Q04DX004 (ip), vehicle: suspension in saline
  T/C: 95 % of control
dose: 6.25 mg/kg/injection, schedule: Q04DX004 (ip), vehicle: saline
  T/C: 102 % of control
dose: 6.25 mg/kg/injection, schedule: Q04DX004 (ip), vehicle: suspension in saline
  T/C: 97 % of control
dose: 12.5 mg/kg/injection, schedule: Q04DX004 (ip), vehicle: saline
  T/C: 99 % of control
dose: 12.5 mg/kg/injection, schedule: Q04DX004 (ip), vehicle: suspension in saline
  T/C: 99 % of control
[14]
  T/C: 100 % of control
[15]
  T/C: 100 % of control
dose: 50.0 mg/kg/injection, schedule: Q04DX004 (ip), vehicle: suspension in saline
  T/C: 100 % of control and 106 % of control
dose: 100.0 mg/kg/injection, schedule: Q04DX004 (ip), vehicle: suspension in saline
  T/C: 111 % of control
dose: 200.0 mg/kg/injection, schedule: Q04DX004 (ip), vehicle: suspension in saline
  T/C: 106 % of control
dose: 400.0 mg/kg/injection, schedule: Q04DX004 (ip), vehicle: suspension in saline
  T/C: 93 % of control

## CN(C)CCCN=c1c2ccccc2n(C)c2[nH]c(=O)n(C)c(=O)c12
dose: 7.5 mg/kg/injection, schedule: Q04DX004 (ip), vehicle: saline
  T/C: 101 % of control
dose: 15.0 mg/kg/injection, schedule: Q04DX004 (ip), vehicle: saline
  T/C: 99 % of control
dose: 30.0 mg/kg/injection, schedule: Q04DX004 (ip), vehicle: saline
  T/C: 102 % of control

## O=C1C(=O)N(c2cccc(Cl)c2)C(=O)N1Cc1ccccc1
[9]
  T/C: 102 % of control
[10]
  T/C: 97 % of control
[11]
  T/C: 92 % of control
[12]
  T/C: 94 % of control
[13]
  T/C: 88 % of control

## O=C1C[C@@H](c2ccccc2)NCCCCN(O)CCCN1
[14]
  T/C: 102 % of control
[15]
  T/C: 102 % of control
dose: 100.0 mg/kg/injection, schedule: Q04DX004 (ip), vehicle: saline
  T/C: 102 % of control

## CCOC(=O)/C=C1/SC(N2CCCCC2)C(=O)N1CC (configuration not stated)
[2]
  T/C: 96 % of control
[3]
  T/C: 96 % of control
[7]
  T/C: 97 % of control
[8]
  T/C: 94 % of control
